Data set [1] addresses T1, full-length hSIRT1 wild-type (Homo sapiens, UniProt Q96EB6).
T1 construct: Full-length human SIRT1 (hSIRT1) proteins were expressed with a C-terminal His6 tag; His6 (C); made in house
T1 sequence (Q96EB6 1-747): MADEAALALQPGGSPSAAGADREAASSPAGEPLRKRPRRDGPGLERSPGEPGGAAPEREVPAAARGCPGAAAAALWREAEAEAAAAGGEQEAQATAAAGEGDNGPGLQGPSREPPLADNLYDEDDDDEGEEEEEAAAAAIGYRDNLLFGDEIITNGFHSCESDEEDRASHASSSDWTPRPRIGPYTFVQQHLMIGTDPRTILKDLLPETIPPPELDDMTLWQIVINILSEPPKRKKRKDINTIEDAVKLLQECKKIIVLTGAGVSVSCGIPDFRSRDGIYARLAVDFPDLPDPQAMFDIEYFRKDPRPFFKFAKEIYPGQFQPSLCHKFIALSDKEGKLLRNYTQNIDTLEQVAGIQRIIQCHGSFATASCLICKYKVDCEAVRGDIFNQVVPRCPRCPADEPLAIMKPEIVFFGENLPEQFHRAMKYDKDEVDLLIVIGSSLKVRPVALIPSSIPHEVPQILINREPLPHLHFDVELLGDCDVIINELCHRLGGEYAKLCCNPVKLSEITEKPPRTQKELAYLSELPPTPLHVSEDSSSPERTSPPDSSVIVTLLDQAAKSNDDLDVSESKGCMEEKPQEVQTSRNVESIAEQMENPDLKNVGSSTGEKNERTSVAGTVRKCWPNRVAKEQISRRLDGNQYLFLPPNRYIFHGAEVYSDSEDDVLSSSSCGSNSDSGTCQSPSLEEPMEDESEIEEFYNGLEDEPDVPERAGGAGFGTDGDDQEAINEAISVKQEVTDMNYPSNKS
In words: SIRT1 activation and inhibition assays (OAcADPr mass spectrometry assay), wild-type enzyme. The format is biochemical.
Description: Final concentrations of the PNC1/GDH coupling system components used were 20 units/mL bovine GDH (Sigma-Aldrich), 1 uM yeast PNC1, 3.4 mM a-ketoglutarate, and 220 μM NADH or NADPH. An extinction coefficient of 6.22 mM^−1 cm^−1 and a pathlength of 0.81 cm was used to convert the absorbance at 340 nm to product concentration for the 150 uL reactions used.
Substrate KM determinations were performed by varying one substrate concentration at a fixed, saturating concentration of the second substrate. SIRT1 activation and inhibition assays were run in reaction buffer with 0.05% BSA at 25° C. and analyzed using the OAcADPr assay. Enzyme and compound were pre-incubated for 20 minutes before addition of substrates. […] The dose-dependence of five compounds was tested and the fold-activation data were described by Eq. 1
[formula] where vx/v0 is the ratio of the reaction rate in the presence (vx) versus absence (v0) of activator (X), RVmax is the relative velocity at infinite activator concentration, EC50 is the concentration of activator required to produce one-half RVmax and b is the minimum value of vx/v0.

The target of the next data set is T2, SIRT1 (Homo sapiens, UniProt Q96EB6).
T2 sequence (Q96EB6 1-747): T1 sequence (Q96EB6 1-747)
The experiment in a line: Trp mass spectrometry assay of SIRT1 activation. The format is biochemical. The following applies: for TRP Activity (EC1.5): EC1.5 = concentration that results in 150% activation of SIRT1. In short, it runs like this: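 N-terminal His-tagged human SIRT1 (10 nM, E. coli BL21(DE3)) with 0.5 μM Ac-RHKK(Ac)W-NH2 peptide and 120 μM βNAD+, 25 min at 25 °C in HEPES pH 7.5, formic acid stop. OAADPR or deacetylated peptide quantified by mass spectrometry; EC1.5 (50% activity increase over control) and Percent Maximum Activation reported.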

[2] abbreviates: Trp mass spectrometry assay, concentration of test compound giving 150% activation of SIRT1.
[3] abbreviates: Trp peptide assay, maximum activity relative to control (100%), read-out: TRP MAX RESP (percent maximum fold activation).
[4] abbreviates: Trp mass spectrometry assay, EC1.5 = concentration of test compound that results in 150% activation of SIRT1.
[5] abbreviates: concentration giving 150% activation of SIRT1, Trp peptide substrate.

Experimental findings from US9834558B2, “Substituted bridged urea analogs as sirtuin modulators” (GLAXOSMITHKLINE LLC, priority 2013, dated 2017) are described below.

Structures are written as SMILES. Read-outs that look alike come from different tables or passages of the source.

`O=C(Nc1ccccn1)N1c2nc(-c3cccc(C(F)(F)F)c3)ccc2N2CC[C@H]1C2` [Example 7]: in data set [1], the RVmax fold shift worked out at 1.00.
Consider `O=C(Nc1cccnc1)N1c2nc(-c3cccc(Cl)c3)ccc2N2CCC[C@H]1C2` [Example 407], for which the “Tryp AVG EC1.5 (μM)” value on SIRT1 (setting [2]) was “A (A (EC1.5<1 μM))”.
Regarding `Cc1cc(-c2ccc3c(n2)N(C(=O)Nc2cnccn2)[C@H]2CCN3C2)c(C)cn1` [(9S)-5-(2,5-dimethylpyridin-4-yl)-N-(pyrazin-2-yl)-1,6,8-triazatricyclo[7.2.1.0 {2,7}]dodeca-2,4,6-triene-8-carboxamide], the “TRP Activity (EC1.5)” value on SIRT1 (Trp peptide assay) is on record as “B (B (EC1.5 1-25 μM))”. In addition, the Emax at SIRT1 (setting [3]) was more than 150%.
For `O=C(Nc1ccc(F)cn1)N1c2nc(-c3ccnc(N4CC[C@H](F)C4)c3)ccc2N2CC[C@H]1C2` [Example 463], on SIRT1 (setting [4]), the “Tryp AVG EC1.5 (μM)” value is recorded as “A (A (EC1.5<1 μM))”.
In the case of `Cc1cc(-c2ccc3c(n2)N(C(=O)N2CCOCC2)[C@H]2CCN3C2)ccn1` [(9S)-5-(2-methylpyridin-4-yl)-8-[(morpholin-4-yl)carbonyl]-1,6,8-triazatricyclo[7.2.1.0 {2,7}]dodeca-2,4,6-triene], the “TRP Activity (EC1.5)” value on SIRT1 (Trp peptide assay) is given as “C (C (EC1.5>25 μM))”. At SIRT1 (setting [3]), the Emax was less than 150%.
With `O=C(Nc1cccnc1)N1c2nc(-c3cncc(C(F)(F)F)c3)ccc2N2CC[C@H]1C2` [Example 392], the “Tryp AVG EC1.5 (μM)” value at SIRT1 (setting [2]) is on record as “A (A (EC1.5<1 μM))”.
Regarding `CCc1cncc(NC(=O)N2c3nc(-c4ccnc(C)c4)ccc3N3CC[C@H]2C3)n1` [(9S)-N-(6-ethylpyrazin-2-yl)-5-(2-methylpyridin-4-yl)-1,6,8-triazatricyclo[7.2.1.0 {2,7}]dodeca-2(7),3,5-triene-8-carboxamide], on SIRT1 (Trp peptide assay), the “TRP Activity (EC1.5)” value is given as “A (A (EC1.5<1 μM))”. The Emax on SIRT1 (setting [3]) is more than 150%.
Take `O=C(Nc1nccc(N2CCNCC2)n1)N1c2nc(-c3cccc(C(F)(F)F)c3)ccc2N2CC[C@H]1C2` [Example 745]: the “Tryp AVG EC1.5 (μM)” value on SIRT1 (setting [5]) is reported as “B (B (EC1.5 1-25 μM))”.
Regarding `O=C(Nc1cccnn1)N1c2nc(-c3ccnc(C(F)(F)F)c3)ccc2N2CCC[C@H]1C2` [(9S)-N-(pyridazin-3-yl)-5-[2-(trifluoromethyl)pyridin-4-yl]-1,6,8-triazatricyclo[7.3.1.0 {2,7}]trideca-2(7),3,5-triene-8-carboxamide], the “TRP Activity (EC1.5)” value on SIRT1 (Trp peptide assay) is listed as “A (A (EC1.5<1 μM))”. Further, the Emax at SIRT1 (setting [3]) is more than 150%.
`Cc1cc(C)nc(NC(=O)N2c3nc(-c4cccc(Cl)c4)ccc3N3CC[C@H]2C3)c1` [Example 105]: the “Tryp AVG EC1.5 (μM)” value on SIRT1 (Trp peptide substrate, concentration giving 150% activation of SIRT1) is given as “B (B (EC1.5 1-25 μM))”.
Consider `O=C(Nc1ccncn1)N1c2nc(-c3cncc(Cl)c3)ccc2N2CCC1CC2` [Example 576], for which the “Tryp AVG EC1.5 (μM)” value at SIRT1 (setting [4]) was “B (B (EC1.5 1-25 μM))”.
As to `O=C(Nc1cnccn1)N1c2nc(-c3ccnc(CO)c3)ccc2N2CC[C@H]1C2` [(9S)-5-[2-(hydroxymethyl)pyridin-4-yl]-N-(pyrazin-2-yl)-1,6,8-triazatricyclo[7.2.1.0 {2,7}]dodeca-2(7),3,5-triene-8-carboxamide], on SIRT1 (Trp peptide assay), the “TRP Activity (EC1.5)” value is reported as “B (B (EC1.5 1-25 μM))”. Also, the Emax at SIRT1 (setting [3]) is more than 150%.
For the compound `N#Cc1ccc(-c2ccc3c(n2)N(C(=O)Nc2cnccn2)[C@H]2CCN3C2)cn1` [(9S)-5-(6-cyanopyridin-3-yl)-N-(pyrazin-2-yl)-1,6,8-triazatricyclo[7.2.1.0 {2,7}]dodeca-2,4,6-triene-8-carboxamide], the “TRP Activity (EC1.5)” value at SIRT1 (Trp peptide assay) is recorded as “C (C (EC1.5>25 μM))”. The Emax on SIRT1 (setting [3]) was less than 150%.
`Cc1cnc2c(NC(=O)N3c4nc(-c5cccc(C(F)(F)F)c5)ccc4N4CC[C@H]3C4)cccc2n1` [Example 8]: the RVmax fold shift in data set [1] is 1.00.
Turning to `O=C(Nc1ccccn1)N1c2nc(-c3ccnc(N4CCC(F)(F)C4)c3)ccc2N2CC[C@H]1C2` [Example 388], the “Tryp AVG EC1.5 (μM)” value at SIRT1 (setting [2]) is “A (A (EC1.5<1 μM))”.
Turning to `Cc1ccncc1-c1ccc2c(n1)N(C(=O)Nc1ccccn1)[C@H]1CCCN2C1` [Example 505], on SIRT1 (setting [4]), the “Tryp AVG EC1.5 (μM)” value is on record as “C (C (EC1.5>25 μM))”.
Consider `Cc1cc(-c2ccc3c(n2)N(C(=O)Nc2cnn(C)c2)[C@H]2CCCN3C2)ccn1` [(9S)-N-(1-methyl-1H-pyrazol-4-yl)-5-(2-methylpyridin-4-yl)-1,6,8-triazatricyclo[7.3.1.0 {2,7}]trideca-2(7),3,5-triene-8-carboxamide], for which the “TRP Activity (EC1.5)” value at SIRT1 (Trp peptide assay) is reported as “B (B (EC1.5 1-25 μM))”. Also, at SIRT1 (setting [3]), the Emax was more than 150%.
As for `Cc1ccc(-c2ccc3c(n2)N(C(=O)Nc2ccnc(O[C@H]4CCOC4)n2)[C@H]2CCN3C2)cn1` [(9S)-5-(6-methylpyridin-3-yl)-N-{2-[(3S)-oxolan-3-yloxy]pyrimidin-4-yl}-1,6,8-triazatricyclo[7.2.1.0 {2,7}]dodeca-2,4,6-triene-8-carboxamide], at SIRT1 (Trp peptide assay), the “TRP Activity (EC1.5)” value is on record as “B (B (EC1.5 1-25 μM))”. Moreover, the Emax at SIRT1 (setting [3]) was more than 150%.
In the case of `O=C(Nc1cccc(-c2ccoc2)n1)N1c2nc(-c3cccc(C(F)(F)F)c3)ccc2N2CC[C@H]1C2` [Example 654], at SIRT1 (setting [5]), the “Tryp AVG EC1.5 (μM)” value is “A (A (EC1.5<1 μM))”.
Consider `C[C@@H]1COCCN1c1ccc2c(n1)N(C(=O)Nc1cccnc1)[C@H]1CCN2C1` [(9S)-5-[(3R)-3-methylmorpholin-4-yl]-N-(pyridin-3-yl)-1,6,8-triazatricyclo[7.2.1.0 {2,7}]dodeca-2(7),3,5-triene-8-carboxamide], for which the “TRP Activity (EC1.5)” value at SIRT1 (Trp peptide assay) was “B (B (EC1.5 1-25 μM))”. Besides, on SIRT1 (setting [3]), the Emax was more than 150%.
On to `O=C(Nc1cccc(-c2cnco2)n1)N1c2nc(-c3cccc(Cl)c3)ccc2N2C[C@@H](O)[C@H]1C2` [Example 693], for which, on SIRT1 (setting [5]), the “Tryp AVG EC1.5 (μM)” value is “A (A (EC1.5<1 μM))”.
As for `CC(C)n1cc(-c2ccc3c(n2)N(C(=O)Nc2cccnc2)[C@H]2CCN3C2)cn1` [Example 494], the “Tryp AVG EC1.5 (μM)” value at SIRT1 (setting [4]) was “B (B (EC1.5 1-25 μM))”.
On to `CC(=O)O[C@H]1CN2C[C@H]1N(C(=O)Nc1ccccn1)c1nc(-c3cccc(C(F)(F)F)c3)ccc12` [Example 634], for which the “Tryp AVG EC1.5 (μM)” value on SIRT1 (setting [5]) is “C (C (EC1.5>25 μM))”.
For `O=C(Nc1cccc(-c2cnco2)c1)N1c2nc(-c3cccc(Cl)c3)ccc2N2CCC1CC2` [Example 497], the “Tryp AVG EC1.5 (μM)” value at SIRT1 (setting [4]) is “A (A (EC1.5<1 μM))”.
With `O=C(Nc1cc(OC[C@H](O)CO)ccn1)N1c2nc(-c3cccc(C(F)(F)F)c3)ccc2N2CC[C@H]1C2` [(9S)-N-{4-[(2R)-2,3-dihydroxypropoxy]pyridin-2-yl}-5-[3-(trifluoromethyl)phenyl]-1,6,8-triazatricyclo[7.2.1.0 {2,7}]dodeca-2(7),3,5-triene-8-carboxamide], at SIRT1 (Trp peptide assay), the “TRP Activity (EC1.5)” value was “A (A (EC1.5<1 μM))”. The Emax on SIRT1 (setting [3]) is more than 150%.
For the compound `COc1cc(NC(=O)N2c3nc(-c4cccc(N5CCOCC5)c4)ccc3N3CCC[C@H]2C3)ncn1` [Example 528], the “Tryp AVG EC1.5 (μM)” value at SIRT1 (setting [4]) is on record as “B (B (EC1.5 1-25 μM))”.
For the compound `CS(=O)(=O)c1cncc(-c2ccc3c(n2)N(C(=O)Nc2ccncn2)[C@H]2CCCN3C2)c1` [Example 379], on SIRT1 (setting [2]), the “Tryp AVG EC1.5 (μM)” value is on record as “A (A (EC1.5<1 μM))”.
Take `O=C(O)c1cc(NC(=S)NCc2ccc(NC(=O)N3c4nc(-c5cccc(C(F)(F)F)c5)ccc4N4CC[C@H]3C4)cc2)ccc1-c1c2ccc(=O)cc-2oc2cc(O)ccc12` [Example 530]: the “Tryp AVG EC1.5 (μM)” value on SIRT1 (setting [4]) was “A (A (EC1.5<1 μM))”. Also, on SIRT1 (Trp mass spectrometry assay, percent maximum fold activation of SIRT1, read-out: Tryp % Fold Act), the Emax is more than 150%.
Take `O=C(Nc1cc(-c2cnco2)ccn1)N1c2nc(-c3cccc(C(F)(F)F)c3)ccc2N2C[C@@H](O)[C@H]1C2` [Example 662]: the “Tryp AVG EC1.5 (μM)” value at SIRT1 (setting [5]) is given as “B (B (EC1.5 1-25 μM))”.
